{"source": "patent US5891924A", "about": "“Curcumin (diferuloylmethane) inhibition of NFκB activation” (Research Development Foundation, priority 1996, dated 1999)", "key": {"[1]": {"test_system": "NF-κB", "assay": "Effect of reducing agents DTT and DMP on inhibition of TNF-induced NF-κB activation, EMSA", "assay_type": "cell-based, human", "conditions": "DTT 100 μM or DMP 100 μM, curcumin 50 μM or PAO 2.4 μM, 60 minutes, then 0.1 nM TNF 30 minutes, FIG. 5"}, "[2]": {"test_system": "p65 subunit of NF-κB", "assay": "Western blot for p65 level in cytoplasm and nucleus of TNF-treated ML-1a cells", "assay_type": "cell-based, human"}, "[3]": {"test_system": "NF-κB", "assay": "Binding of NF-κB to DNA, nuclear extracts from TNF-pre-activated cells incubated with curcumin, EMSA", "set-up": "species or system human", "conditions": "nuclear extracts from TNF-pre-activated cells incubated with curcumin 15 minutes, FIG. 2b"}, "[4]": {"test_system": "Sp1", "assay": "EMSA of Sp1 transcription factor in curcumin-treated cells", "assay_type": "cell-based, human", "conditions": "cells treated with different concentrations of curcumin 60 minutes at 37° C., FIG. 4"}, "[5]": {"test_system": "NF-κB", "assay": "TNF-dependent NF-κB activation by electrophoretic mobility shift assay in ML-1a cells", "assay_type": "cell-based, human"}, "[6]": {"test_system": "IκBα", "assay": "Western blot for TNF-induced phosphorylation and degradation of IκBα in ML-1a cells", "assay_type": "cell-based, human", "conditions": "curcumin 50 μM 60 minutes pretreatment, TNF 0.1 nM different times, cytosolic fraction, FIG. 6A", "description": "ML-1a (2×10^6 /ml) pretreated (for 60 minutes at 37° C.) with or without curcumin (50 μM) were incubated for different times with TNF (0.1 nM), and then assayed for IκBα (FIG. 6A) and for p65 (FIG. 6B) in cytosolic fractions by western blot analysis as described below. ML-1a (2×10^6 /ml) pretreated (for 60 minutes at 37° C.) with curcumin were incubated with TNF (0.1 nM) for 30 minutes. Nuclear and cytoplasmic extracts were assayed by western blot analysis for p65. The arbitrary units represent the relative amounts of the respective proteins as described below.\nAfter the NF-κB activation reaction described above, postnuclear extracts were resolved on 10% SDS-polyacrylamide gels for IκBα. To determine p65 levels, nuclear and post nuclear (cytoplasmic) extracts were resolved on 8% SDS-polyacrylamide gels. After the gels, the proteins were electrotransferred to nitrocellulose filters, probed with a rabbit polyclonal antibody against IκBa or against p65, and detected by chemiluminescence (ECL-Amersham) (22). The bands obtained were quantitated using Personal Densitometer Scan v1.30 using Image Quanta software version 3.3 (Molecular Dynamics, Sunnyvale, Calif.).\nThe translocation of NF-κB to the nucleus is preceded by the phosphorylation and proteolytic degradation of IκBα (26). […]"}, "[7]": {"test_system": "NF-κB", "assay": "PMA- and H2O2-mediated activation of NF-κB in ML-1a cells, EMSA", "assay_type": "cell-based, human", "conditions": "curcumin 50 μM 60 minutes preincubation, FIG. 3"}, "[8]": {"test_system": "AP-1", "assay": "EMSA of AP-1 transcription factor in curcumin-treated cells", "assay_type": "cell-based, human", "conditions": "cells treated with different concentrations of curcumin 60 minutes at 37° C., FIG. 4"}}, "data": [{"smiles": "COc1cc(/C=C/C(=O)CC(=O)/C=C/c2ccc(O)c(OC)c2)ccc1O", "note": "[curcumin, diferuloylmethane]", "values": [{"measurement": "reversal by DTT and DMP of the inhibition of TNF-induced NF-κB activation", "setting": "[1]", "result": "did not reverse"}, {"measurement": "effect on TNF-dependent change in nuclear and cytoplasmic p65 levels (translocation of p65 to the nucleus)", "setting": "[2]; curcumin 50 μM 60 minutes pretreatment, TNF 0.1 nM, FIGS. 6B and 6C", "result": "abolished"}, {"measurement": "down-modulation of the cytoplasmic pool of p65 subunit of NF-κB", "setting": "[2]; curcumin-treated ML-1a cells, western blot", "result": "not down-modulated"}, {"measurement": "effect on the ability of NF-κB to bind to the DNA", "setting": "[3]", "result": "did not modify"}, {"measurement": "effect on the Sp1 transcription factor", "setting": "[4]", "result": "no effect"}, {"measurement": "inhibition of TNF response, pretreatment with curcumin", "setting": "[5]; 20 μM curcumin 60, 30 and 10 minutes prior to TNF 0.1 nM, TNF 30 minutes, FIG. 1b", "result": "inhibited only when cells were pretreated"}, {"measurement": "inhibition of TNF response, cotreatment of cells with TNF and curcumin", "setting": "[5]; 20 μM curcumin added at the same time as TNF 0.1 nM, TNF 30 minutes, FIG. 1b", "result": "not effective"}, {"measurement": "inhibition of NF-κB activation induced by 10 nM TNF", "setting": "[5]; 50 μM curcumin 60 minutes pretreatment, 10 nM TNF for different times, FIG. 1c", "result": "completely inhibit"}, {"measurement": "activation of NF-κB by the compound by itself", "setting": "[5]; ML-1a cells, without TNF, EMSA", "result": "did not activate"}, {"measurement": "effect on TNF-induced phosphorylation and degradation of IκBα", "setting": "[6]", "result": "abolished"}, {"measurement": "inhibition of hydrogen peroxide-induced activation of NF-κB", "setting": "[7]; H2O2 0.5 mM 30 minutes", "result": "completely blocked"}, {"measurement": "inhibition of PMA-induced activation of NF-κB", "setting": "[7]; PMA 25 ng/ml 30 minutes", "result": "completely blocked"}, {"measurement": "effect on DNA binding of AP-1 transcription factors", "setting": "[8]", "result": "down-modulated"}]}]}
